Assay results as given in patent publication US8030493B2, “Monovalent and divalent salts of N-(5-hydroxynicotinoil) -L-glutamic acid exhibiting psychotropic (antidepressant and anxiolytic), neuroprotective, geroprotective and cerebroprotective action” (Obschestvo S Ogranichennoy Otvetstvennostyu “Natsionalnaya …, priority 2006, dated 2011).
Values joined by “and” are separate entries in the source; they are usually repeats but may differ in a detail not shown here. Equal values may be shown once. Marks after values point to notes of the source that are not given here.

Key:
Type in all cases: in vivo
[1] = system: rats with massive cortical ischemia; assay: Model of massive cortical ischemia (occlusion of middle cerebral artery): ischemic damage of cerebral cortex; details: for Intensity of ischemic damage of cerebral cortex (slice score, points), slice 1 / Intensity of ischemic damage of cerebral cortex (slice score, points), slice 2 / Intensity of ischemic damage of cerebral cortex (slice score, points), slice 3 / Intensity of ischemic damage of cerebral cortex (slice score, points), slice 4 / Intensity of ischemic damage of cerebral cortex (slice score, points), slice 5: 72 hours after OMCA
Method: White nondescript male rats with body weight 350-450 g anesthetized with chloral hydrate (400 mg/kg, intraperitoneally) were used in the experiments. After ligation of left carotid occlusion of middle cerebral artery (OMCA) was made under the microscope (magnification 14.0×3.3) proximal to bifurcation to frontal and parietal branches (S. T. Chen et al., Stroke, 1986, v. 17, No 4, p. 738-743).
After the surgery the animals were randomized into 3 groups. Experimental animals received Compound I or nooglutyl intraperitoneously 30 minutes, 2, 24, and 48 hours after the surgery. Control animals at the same time points received saline (0.9% sodium chloride solution). 72 hours after OMCA the animals were decapitated. Material frozen at −20° C. was used for preparation of 5 frontal slices 2.5 mm thick, which were painted with 2,3,5-triphenyltetrazolium solution (TPTZ). Auc1 morphometric program was used to perform planimetria, determination of affected zone extent and percentage of affected zone extent in relation to volume of ipsilateral hemisphere. The surgery results in creation of vast ischemic damage of the brain cortex, which is localized within frontal-parietal and dorsal-lateral zones. To compare intensity of the changes in different slices arbitrary scale was used, with 75%, 60%, 45%, 20%, 5%, and 0% affection of hemisphere assessed as 2.5 points, 2 points, 1.5 points, 1 point, 0.5 points, and 0 points, respectively.

aged rats (24 months) [2] = assay: Passive avoidance response in aged rats (24 months); details: 20 mg/kg 60 days, PAR reproduction 24 hours after learning; for Number of the rats, which did not entry dark chamber (%): 20 mg/kg
Method: (§1) White nondescript male rats (Wistar line): to adult animals at age 3 months with body weight 250-300 g and aged 24 month old animals with body weight 350-450 g were used in the study. Nooglutyl at dose level 20 mg/kg and Compound I were administered to aged rats intraperitoneally for 2 months followed by assessment of the effect on learning capacity impaired by age and neurological deficit. Analysis of variance with Student's test, variant portion method and U-test were employed for data processing.
Impact of Compound I on memory disorders in aged animals. To develop passive avoidance response (PAR) in rats the unit supplied by Lafayette Instrument Co., (USA) (Ader et al. Retention of a passive avoidance response as a function of the intensity and duration of electric shock. Psycho Sci. 1972, v. 26, p. 125-128; Voronina T. A. et al. “Textbook for Experimental (Preclinical Study) of novel pharmacological compounds”. Moscow, Medicina. 2005, p. 253-263 and 308-320) was used. […] Animals preferring illuminated platform were not used in this experiment. In the dark chamber the animal received single pain stimulus with electric current (0.45 mA), duration of the stimulus was determined from the running out of the animal from the dark chamber.

[3] = system: rats with hemorrhagic stroke; assay: Hemorrhagic stroke: neurological deficit (Stroke-index McGrow scale); details: for Number of animals with neurological symptoms, %: Circus movements / Number of animals with neurological symptoms, %: Palsy of 1-4 extremities / Number of animals with neurological symptoms, %: Paresis of 1-4 extremities / Number of animals with neurological symptoms, %: Weakness of extremities: 20 mg/kg single dose intraperitoneally; for Rats with severe neurological symptoms: control with hemorrhagic stroke 60%
Source text: White nondescript male rats with body weight 200-250 g, which lived in vivarium and had feed (standard palletized feed) and water ad libitum, with natural alternation of day and night, were used in the experiments. Hemorrhagic stroke (local cerebral hemorrhage) was simulated according to method by A. N. Makarenko et al. (Method of local hemorrhage simulation I various structures of the brain in experimental animals. Journal Visshei Nervnoy Deyatelnosti—Journal of Higher Nervous Activities, 2002, v. 52, No 6, p. 765-768). In nembutal-anesthetized rats (40 mg/kg, i.m.) destruction of the brain tissue in capsule interna area was made with the use of special device (mandarin-knife) followed by application of blood (0.02-0.03 ml) taken from under the rat's tongue to the damaged area (within 2-3 minutes). False-operated animals underwent scalping and craniotomy. The animals were divided into 5 groups: intact rats, false-operated rats, animals with hemorrhagic stroke received nooglutyl at 20 mg/kg, and animals with hemorrhagic stroke received Compound I at 20 mg/kg. Effects were recorded within 24 hours and 14 days after the surgery. Learning ability and memory of the rats was examined in the model of passive avoidance response (PAR, Passive Avoidance supplied by Lafayette Instrument Co., USA). To determine neurological deficit in the animals Stroke-index McGrow scale modified by I. V. Gannushkina (Functional architectonics of the brain, Moscow, Medicina, 1977, 224 p.) was used. The severity of the condition was determined by the sum of the points. The number of rats with mild symptoms up to 2.5 points of Stroke-index scale (apathy, weakness of the extremities, unilateral semiptosis, tremor, circus movements) and severe manifestations of neurological disorders (3 to 10 points)—paresis of the extremities, palsy of low extremities, lateral position. The animals received single dose of nooglutyl and Compound I at the same dose 20 mg/kg intraperitoneally within 3-3.5 hours after the surgery. Controlled animals were treated with saline. At onset of the experiment each group comprised 15-20 animals. Mortality of the rats was recorded throughout the observation period (14 days). Statistical analysis was made using parametrical and non-parametrical methods and Biostat software. Nimodipin administered at 01.mg/kg according to above scheme was considered as a standard.

[4] = system: rats with induced ischemia; assay: Passive avoidance response in animals with induced ischemia; details: 24 hours after learning, 180 seconds test
Source text: In separate series of the experiments the animals learned in the test of passive avoidance response (PAR), which was formed in apparatus supplied by Lafayette Instrument Co. (USA) comprising brightly illuminated hanging platform connected to dark chamber with electrified floor. In the course of learning the rat entered dark chamber due to congenital hole reflex, and received pain electric stimulus.
These effects of nooglutyl and Compound Ia were significant compared with control at p<0.05.

aged rats (24 months) [5] = assay: Motor coordination of aged rats on rotating rod; details: for Number of the animals (%), which obtained the skill, By attempt 5 / Number of the animals (%), which obtained the skill, By attempt 15 / Number of the animals (%), which obtained the skill, By attempt 10: aged rats 24 months, 20 mg/kg 60 days, rotating rod 2 minutes; for Number of the animals (%), which obtained the skill, By attempt 10: 20 mg/kg; for Number of attempts required for learning to 50% of the animals: aged rats treated for 2 months, untreated aged animals 17th attempt
Method: as §1
To assess neurological deficit in aged animals (disturbed coordination and capacity for learning motor responses) the rats were placed on the rotating rod. The number of attempts required to obtain the skill of holding on the rotating rod for 2 minutes was registered. […] Under similar conditions only 25% of aged rats obtained this skill starting from the 11th-14th attempt. […] 60% of aged rats treated with nooglutyl and 66% of aged rats treated with Compound I for 2 months learned the skill by the 10th attempt.

[6] = 40 mg/kg intraperitoneally 30 minutes, 2, 24, 48 hours after surgery
[7] = 50 mg/kg intraperitoneally 30 minutes, 2, 24, 48 hours after surgery

| SMILES | Latent period of entry to dark chamber (c) (aged rats (24 months) [2]) | Number of the rats, which did not entry dark chamber (%) (aged rats (24 months) [2]) | Number of animals with neurological symptoms, %: Circus movements ([3]; Day 1) [%] | Number of animals with neurological symptoms, %: Palsy of 1-4 extremities ([3]; Day 1) [%] | Number of animals with neurological symptoms, %: Paresis of 1-4 extremities ([3]; Day 1) [%] | Number of animals with neurological symptoms, %: Weakness of extremities ([3]; Day 1) | Number of animals with neurological symptoms, %: Circus movements ([3]; Day 14) [%] | Number of animals with neurological symptoms, %: Palsy of 1-4 extremities ([3]; Day 14) [%] | Number of animals with neurological symptoms, %: Paresis of 1-4 extremities ([3]; Day 14) | Number of animals with neurological symptoms, %: Weakness of extremities ([3]; Day 14) [%] | Rats with severe neurological symptoms ([3]; Day 14) [%] | Latent period of entry to dark dangerous chamber [4] [s] | Number of the animals (%), which obtained the skill, By attempt 5 (aged rats (24 months) [5]) [%] | Number of the animals (%), which obtained the skill, By attempt 15 (aged rats (24 months) [5]) | Number of the animals (%), which obtained the skill, By attempt 10 (aged rats (24 months) [5]) | Number of attempts required for learning to 50% of the animals (aged rats (24 months) [5]) [attempt] | other results |
| --- | --- | --- | --- | --- | --- | --- | --- | --- | --- | --- | --- | --- | --- | --- | --- | --- | --- |
| O=C([O-])CC[C@H](NC(=O)c1cncc(O)c1)C(=O)[O-].[Ca+2] [Compound I, Calcium N-(5-hydroxynicotinoyl)-L-glutamate] | 96.9 ± 16.1 | 60 | 10 | 0 | 10 | 20* % | 10 | 0 | 5* % | 0 | 15 | 62.3 ± 7.2 | 20 | 66# % | 66% and 60# % | 6 | Total affected area (percentage of volume of ipsilateral hemisphere) ([1]; 40 mg/kg after ischemia-inducing exposure): 10.54±1.84%; Intensity of ischemic damage of cerebral cortex (slice score, points), slice 1 [1, 6]: 0.08 ± 0.01 points; Intensity of ischemic damage of cerebral cortex (slice score, points), slice 2 [1, 6]: 0.92 ± 0.12 points; Intensity of ischemic damage of cerebral cortex (slice score, points), slice 3 [1, 6]: 0.7 ± 0.19 points; Intensity of ischemic damage of cerebral cortex (slice score, points), slice 4 [1, 6]: 0.58 ± 0.14 points; Intensity of ischemic damage of cerebral cortex (slice score, points), slice 5 [1, 6]: 0.2 ± 0.15 points; Decrease of total affected extent versus control ([1]; 40 mg/kg, p<0.05): 47.3% |
| O=C(O)CC[C@H](NC(=O)c1cncc(O)c1)C(=O)O [Nooglutyl, N-(5-hydroxynicotinoyl)-L-glutamic acid, reference compound] | 97.1 ± 20.3 | 60 | 5 | 0 | 25 | 30* % | 0 | 0 | 20* % | 10 | 25 | 56.2 ± 8.3 | 20 | 60# % | 60# % | 7 | Total affected area (percentage of volume of ipsilateral hemisphere) ([1]; 50 mg/kg after ischemia-inducing exposure): 14.3±2.14%; Intensity of ischemic damage of cerebral cortex (slice score, points), slice 1 [1, 7]: 0.28 ± 0.06 points; Intensity of ischemic damage of cerebral cortex (slice score, points), slice 2 [1, 7]: 1.12 ± 0.17 points; Intensity of ischemic damage of cerebral cortex (slice score, points), slice 3 [1, 7]: 1.01 ± 0.11 points; Intensity of ischemic damage of cerebral cortex (slice score, points), slice 4 [1, 7]: 0.59 ± 0.19 points; Intensity of ischemic damage of cerebral cortex (slice score, points), slice 5 [1, 7]: 0.18 ± 0.14 points; Number of the animals (%), which obtained the skill, By attempt 10 (aged rats (24 months) [5]; listed as nooglutyl): 60% |
